Assay results taken from patent US20180118721A1, “PYRIMIDINE DERIVATIVES” (Merck Patent GmbH, priority 2015, published 2018).

Columns and labels:
[1] = target: T1, purified human recombinant MTH1 (human MTH1, residues 42-197) (Homo sapiens, UniProt P36639); assay: MTH1 enzymatic assay (luminescence-based, PPiLight); assay type: biochemical; conditions: 6 μM 8-oxo-dGTP, Table 1, grouped
T1 construct: human MTH1, residues 42-197, Uniprot-ID: P36639, expressed in E. coli; made in house; host or cells: E. coli
Description: The IC50 value was determined by a MTH1 enzymatic assay. The assay comprises the principal steps of incubating a mixture of MTH1, the compound in question at different concentrations and 8-oxo-2′-deoxyguanosine-5′-triphosphate (8-oxo-dGTP) in assay buffer. Nucleotide triphosphate hydrolysis by MTH1, i.e. decomposition of 8-oxo-2′-deoxyguanosine-5′-triphosphate, produces 8-oxo-2′-deoxyguanosine-5′-monophosphate (8-oxo-dGMP) and pyrophosphate (PPi). The amount of generated pyrophosphate (PPi) is then measured by a bioluminescent reaction. In detail: The MTH1 (human mutT homologue 1) enzymatic assay is performed as a luminescence-based 384-well assay. […] The assay buffer contains 100 mM Tris-acetate pH 7.5, 40 mM NaCl, 10 mM Mg(OAc)2, 0.005% Tween 20 and 2 mM dithiothreitol (DTT). […] Then, in a second step, the substrate 8-oxo-dGTP is added and the reaction mixture is incubated for 30 minutes at 22° C. The pharmacologically relevant assay volume is 5 PI. The final concentrations in the assay during incubation of the reaction mixture are 0.1-0.2 nM, typically 0.1 nM, MTH1 and 6 μM 8-oxo-dGTP. After incubation of the reaction mixture, the generation of pyrophosphate (PPi) as a result of nucleotide triphosphate (8-oxo-dGTP) hydrolysis by MTH1 is detected using the PPiLight inorganic pyrophosphate assay kit (Lonza) (third step). 2 to 5 μl, such as 3 to 5 μl, typically 3 or 4 μl, for instance 4 μl, of a 1:1 mixture of PPiLight converting reagent (AMP) and PPiLight detection reagent are added to the reaction mixture. In the presence of pyrophosphate, the detection reagent catalyzes the conversion of AMP to ATP. Luciferase then produces light from the newly formed ATP and luciferin. The amount of light produced is directly proportional to the amount of PPi in the sample. Following signal development for 1 h the plates are analysed in an EnVision (PerkinElmer) microplate reader using the ultra sensitive luminescence option. Data are processed employing the Genedata Screener software. In particular, IC50 values are determined in the usual manner (using the Hill Equation) by fitting a dose-response curve to the data points using nonlinear regression analysis.
Hill Equation: Y=S0+(Sinf−S0)/(1+(10^logIC50/10^c)^n); Y: luminescence signal (response), S0: activity level at zero concentration of test compound, Sinf=activity level at infinite concentration, Hill coefficient n=measure of the slope at IC50, c=concentration in logarithmic units corresponding to the values on the x-axis of the dose response curve plot

[2] = target: T2, humanMTH1 (aminoacids 42 to 197) (Homo sapiens, UniProt P36639); assay: Binding affinities and kinetics on MTH1 surfaces by surface plasmon resonance (SPR); conditions: SPR, Biacore4000, 25° C.; Table 1, grouped; read-out: KD IC50
T2 construct: humanMTH1 (aminoacids 42 to 197); His tag at the N-terminus; purchased Abnova ab99390; host or cells: E. coli
Description: The SPR experiments were performed using a Biacore4000 instrument. […] HumanMTH1 was immobilized on Biacore CM5 chips at 25° C. and a flow rate of 10 μL/min using amine coupling at pH 5.5 and in presence of 1 μM MSC2567771B-1 according to Biacore's standard protocol. MTH1 was applied at a concentration of 10 μg/mL and depending on the duration of the injection time immobilization levels between 500 and 2,000 RU were obtained. Sample compounds were applied in form of titration series with a doubling of concentration at each subsequent injection. In general, 10 concentrations were injected covering a dilution range of 500 fold. Before and after each of these titration series the binding capability of the surface was controlled by the injection of the positive control S-Crizotinib at a fixed concentration of 2 μM. Kinetic titration experiments were performed at 25° C. with a flow rate of 30 μL/min, a sample contact time of 90 sec and a dissociation time of 420 sec in running buffer (20 mM Tris-HCl (Tris(hydroxymethyl)-aminomethane HCl) pH 7.40, 150 mM NaCl, 5 mM MgCl2, 1 mM DTT (dithiothreitol), 0.1 mM EGTA (ethylene glycol tetraacetic acid), 0.05% Tween 20) containing 2% DMSO (dimethyl sulfoxide). Buffer injections identical to the sample injections were executed at the beginning of the successive series for the purpose of double referencing. Solvent correction cycles (eight correction points, 1.4%-2.8% DMSO) were run at the same intervals. For surface conditioning ten start-up cycles (buffer injections) were run. Data points were collected at a sample rate of 10 Hz.
Data sets were processed and analyzed using the software Biacore4000 Evaluation, version 1.0. Solvent corrected and double-referenced association and dissociation phase data were fitted to a simple 1:1 interaction model with mass transport limitations.
Measured values are indicated as KD IC50 in the Table below.

IC50 [1] | Kd [2] | SMILES
1 to 100 nM | 1 to 100 nM | CNc1cc(N2CCC[C@](O)(c3ccccc3)C2)nc(N)n1 (single isomer, unassigned) [Example 91]
1 to 100 nM | 1 to 100 nM | C[C@H]1C(c2ccccc2)CCN1c1cc(NC2CC2)nc(N)n1 (stereo in doubt) [Example 54, N4-Cyclopropyl-6-((2S,3R)-2-methyl-3-phenyl-pyrrolidin-1-yl)-pyrimidine-2,4-diamine]
1 to 100 nM | 1 to 100 nM | C[C@H]1[C@H](c2ccccc2)CCN1c1cc(NC2CC2)nc(N)n1 (stereo in doubt) [Example 55, N4-Cyclopropyl-6-((2S,3S)-2-methyl-3-phenyl-pyrrolidin-1-yl)-pyrimidine-2,4-diamine]
1 to 100 nM | 1 to 100 nM | C[C@@H]1[C@H](c2ccccc2)CCN1c1cc(NC2CC2)nc(N)n1 (stereo in doubt) [Example 56, N4-Cyclopropyl-6-((2R,3S)-2-methyl-3-phenyl-pyrrolidin-1-yl)-pyrimidine-2,4-diamine]
1 to 100 nM | 1 to 100 nM | C[C@@H]1C(c2ccccc2)CCN1c1cc(NC2CC2)nc(N)n1 (stereo in doubt) [Example 57, N4-Cyclopropyl-6-((2R,3R)-2-methyl-3-phenyl-pyrrolidin-1-yl)-pyrimidine-2,4-diamine]
1 to 100 nM | 1 to 100 nM | Nc1nc(NC2CC2)cc(N2CC[C@@H](O)C2)n1 [Example 29, (R)-1-(2-Amino-6-cyclopropylamino-pyrimidin-4-yl)-pyrrolidin-3-ol]
1 to 100 nM | 1 to 100 nM | Nc1nc(NC2CC2)cc(N2CCCC2c2ccccc2)n1 (stereo not drawn) [Example 30, N4-Cyclopropyl-6-(2-phenyl-pyrrolidin-1-yl)-pyrimidine-2,4-diamine]
1 to 100 nM | 1 to 100 nM | CC1CC2CCCCC2N1c1cc(NC2CC2)nc(N)n1 (stereo not drawn) [Example 31, N4-Cyclopropyl-6-(2-methyl-octahydro-indol-1-yl)-pyrimidine-2,4-diamine]
1 to 100 nM | 1 to 100 nM | Nc1nc(NC2CC2)cc(N2CCC(O)(c3ccccc3)C2)n1 (stereo not drawn) [Example 32, 1-(2-Amino-6-cyclopropylamino-pyrimidin-4-yl)-3-phenyl-pyrrolidin-3-ol]
1 to 100 nM | 1 to 100 nM | CC1CCCN1c1cc(NC2CC2)nc(N)n1 (stereo not drawn) [Example 33, N4-Cyclopropyl-6-(2-methyl-pyrrolidin-1-yl)-pyrimidine-2,4-diamine]
< 1 nM | 1 to 100 nM | Nc1nc(NC2CC2)cc(N2CCCC2Cc2ccccc2)n1 (stereo not drawn) [Example 34, 6-(2-Benzyl-pyrrolidin-1-yl)-N4-cyclopropyl-pyrimidine-2,4-diamine]
1 to 100 nM | 1 to 100 nM | Nc1nc(NC2CC2)cc(N2CCc3ccccc32)n1 [Example 35, N4-Cyclopropyl-6-(2,3-dihydro-indol-1-yl)-pyrimidine-2,4-diamine]
1 to 100 nM | 1 to 100 nM | CC1(O)CCN(c2cc(NC3CC3)nc(N)n2)C1 (stereo not drawn) [Example 43, 1-(2-Amino-6-cyclopropylamino-pyrimidin-4-yl)-3-methyl-pyrrolidin-3-ol]
1 to 100 nM | 1 to 100 nM | Nc1nc(NC2CC2)cc(N2CC[C@H](O)C2)n1 [Example 44, (S)-1-(2-Amino-6-cyclopropylamino-pyrimidin-4-yl)-pyrrolidin-3-ol]
1 to 100 nM | 1 to 100 nM | C[C@@H]1C[C@H](O)CN1c1cc(NC2CC2)nc(N)n1 [Example 45, (3S,5R)-1-(2-Amino-6-cyclopropylamino-pyrimidin-4-yl)-5-methyl-pyrrolidin-3-ol]
< 1 nM | < 1 nM | C[C@H]1C[C@@H](O)CN1c1cc(NC2CC2)nc(N)n1 [Example 46, (3R,5S)-1-(2-Amino-6-cyclopropylamino-pyrimidin-4-yl)-5-methyl-pyrrolidin-3-ol]
< 1 nM | < 1 nM | Nc1nc(NC2CC2)cc(N2CCC[C@@H]2Cc2ccccc2Cl)n1 [Example 47, 6-[(R)-2-(2-Chloro-benzyl)-pyrrolidin-1-yl]-N4-cyclopropyl-pyrimidine-2,4-diamine]
1 to 100 nM | 1 to 100 nM | Nc1nc(NC2CC2)cc(N2CCC[C@H]2Cc2ccccc2Cl)n1 [Example 48, 6-[(S)-2-(2-Chloro-benzyl)-pyrrolidin-1-yl]-N4-cyclopropyl-pyrimidine-2,4-diamine]
< 1 nM | 1 to 100 nM | Nc1nc(NC2CC2)cc(N2CC[C@@](O)(C(F)(F)F)C2)n1 [Example 49, (S)-1-(2-Amino-6-cyclopropylamino-pyrimidin-4-yl)-3-trifluoromethyl-pyrrolidin-3-ol]
1 to 100 nM | 1 to 100 nM | Nc1nc(NC2CC2)cc(N2CC[C@](O)(C(F)(F)F)C2)n1 [Example 50, (R)-1-(2-Amino-6-cyclopropylamino-pyrimidin-4-yl)-3-trifluoromethyl-pyrrolidin-3-ol]
< 1 nM | 1 to 100 nM | Nc1nc(NC2CC2)cc(N2CCCc3ccccc32)n1 [Example 51, N4-Cyclopropyl-6-(3,4-dihydro-2H-quinolin-1-yl)-pyrimidine-2,4-diamine]
< 1 nM | – | CNc1cc(N2CCCC2C(C)C)nc(N)n1 (stereo not drawn) [Example 101, 6-(2-Isopropyl-pyrrolidin-1-yl)-N4-methyl-pyrimidine-2,4-diamine-formate]
< 1 nM | – | CNc1cc(N2CCCC2C2CCCC2)nc(N)n1 (stereo not drawn) [Example 102, 6-(2-Cyclopentyl-pyrrolidin-1-yl)-N4-methyl-pyrimidine-2,4-diamine]
1 to 100 nM | – | CNc1cc(N2CCC(c3ccccc3)C2=O)nc(N)n1 (stereo not drawn) [Example 103, 1-(2-Amino-6-methylamino-pyrimidin-4-yl)-3-phenyl-pyrrolidin-2-one]
> 100 nM | – | Nc1nc(NC2CC2)cc(N2C(=O)CCC2c2ccc(Cl)cc2)n1 (stereo not drawn) [Example 104, 1-(2-Amino-6-cyclopropylamino-pyrimidin-4-yl)-5-(4-chloro-phenyl)-pyrrolidin-2-one]
< 1 nM | – | CNc1cc(N2CCCC2c2ccsc2)nc(N)n1 (stereo not drawn) [Example 111, N4-Methyl-6-(2-thiophen-3-yl-pyrrolidin-1-yl)-pyrimidine-2,4-diamine]
1 to 100 nM | – | Cc1ccc(CCNc2cc(N3CCC(F)(F)C3)nc(N)n2)cc1 [Example 145, 6-(3,3-Difluoro-pyrrolidin-1-yl)-N4-(2-p-tolyl-ethyl)-pyrimidine-2,4-diamine-formiate]

SMILES | IC50 [1] | Kd [2]
CNc1cc(N2CCCCC2Cc2ccccc2OC)nc(N)n1 (single isomer, unassigned) [Example 107] | 1 to 100 nM | 1 to 100 nM
Nc1nc(NC2CC2)cc(N2CCCC2C(=O)NCCc2ccc(S(=O)(=O)F)cc2)n1 (stereo not drawn) [Example 119, 4-(2-{[1-(2-Amino-6-cyclopropylamino-pyrimidin-4-yl)-pyrrolidine-2-carbonyl]-amino}-ethyl)-benzenesulfonyl fluoride] | 1 to 100 nM | –
